pIC50: −log10 of the molar value.
Key:
Test in all cases: cells
Conditions in all cases: Homo sapiens
[1] = tested on: GB-1; format: functional, cell-based;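 note: growth of GB-1 cells judged by a viability assay, IC50 marks the concentration inhibiting growth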
Description: SANGER: Inhibition of human GB-1 cell growth in a cell viability assay.

[2] = tested on: GCIY; format: functional, cell-based;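 note: growth inhibition of the human GCIY cell line, read out by a cell viability assay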
Description: SANGER: Inhibition of human GCIY cell growth in a cell viability assay.

[3] = tested on: A388; format: functional, cell-based;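 note: growth inhibition of human A388 cells, read out with a cell viability assay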
Description: SANGER: Inhibition of human A388 cell growth in a cell viability assay.

[4] = tested on: LS-513; format: functional, cell-based
Description: SANGER: Inhibition of human LS-513 cell growth in a cell viability assay.

[5] = tested on: K5; format: functional, cell-based
Description: SANGER: Inhibition of human K5 cell growth in a cell viability assay.

[6] = tested on: ES1; format: functional, cell-based;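 note: growth inhibition of ES1 cells, read out with a cell viability assay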
Description: SANGER: Inhibition of human ES1 cell growth in a cell viability assay.

[7] = tested on: BB30-HNC; format: functional, cell-based;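 note: growth inhibition of the cultured cell line, read out by a cell viability assay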
Description: SANGER: Inhibition of human BB30-HNC cell growth in a cell viability assay.

[8] = tested on: TE-6; format: functional, cell-based;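 note: growth inhibition of TE-6 cells, read out with a cell viability assay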
Description: SANGER: Inhibition of human TE-6 cell growth in a cell viability assay.

[9] = tested on: IST-SL1; format: functional, cell-based;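 note: growth inhibition of human IST-SL1 cells, read out with a cell viability assay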
Description: SANGER: Inhibition of human IST-SL1 cell growth in a cell viability assay.

[10] = tested on: NCI-H446; format: functional, cell-based;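 note: growth inhibition of NCI-H446 cells determined by a cell viability assay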
Description: SANGER: Inhibition of human NCI-H446 cell growth in a cell viability assay.

[11] = tested on: IA-LM; format: functional, cell-based;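 note: cell viability assay measuring growth inhibition of human IA-LM cells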
Description: SANGER: Inhibition of human IA-LM cell growth in a cell viability assay.

[12] = tested on: ACN; format: functional, cell-based;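 note: growth inhibition of the human ACN cell line, read out via cell viability testing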
Description: SANGER: Inhibition of human ACN cell growth in a cell viability assay.

[13] = tested on: HT-144; format: functional, cell-based
Description: SANGER: Inhibition of human HT-144 cell growth in a cell viability assay.

[14] = tested on: RXF 393; format: functional, cell-based;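 note: growth inhibition of human RXF 393 cells, read out with a cell viability assay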
Description: SANGER: Inhibition of human RXF393 cell growth in a cell viability assay.

[15] = tested on: C8166; format: functional, cell-based;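 note: growth inhibition of human C8166 cells measured by a cell viability assay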
Description: SANGER: Inhibition of human C8166 cell growth in a cell viability assay.

[16] = tested on: SNU-C2B; format: functional, cell-based;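 note: cell viability readout used to measure compound-driven suppression of SNU-C2B cell proliferation, IC50 marking half-maximal growth inhibition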
Description: SANGER: Inhibition of human SNU-C2B cell growth in a cell viability assay.

[17] = tested on: A3-KAW; format: functional, cell-based;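 note: growth inhibition of human A3-KAW cells, read out with a cell viability assay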
Description: SANGER: Inhibition of human A3-KAW cell growth in a cell viability assay.

[18] = tested on: OCI-AML2; format: functional, cell-based;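 note: growth inhibition of OCI-AML2 cells, read out with a cell viability assay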
Description: SANGER: Inhibition of human OCI-AML2 cell growth in a cell viability assay.

[19] = tested on: LB771-HNC; format: functional, cell-based;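 note: growth inhibition of LB771-HNC human cells, read out with a cell viability assay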
Description: SANGER: Inhibition of human LB771-HNC cell growth in a cell viability assay.

[20] = tested on: LB2241-RCC; format: functional, cell-based;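 note: cell viability assay measuring how strongly the cultured human renal carcinoma line is prevented from growing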
Description: SANGER: Inhibition of human LB2241-RCC cell growth in a cell viability assay.

[21] = tested on: A101D; format: functional, cell-based;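 note: growth inhibition of the cell line, measured with a viability assay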
Description: SANGER: Inhibition of human A101D cell growth in a cell viability assay.

[22] = tested on: ES3; format: functional, cell-based;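 note: growth inhibition of ES3 cells, read out with a cell viability assay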
Description: SANGER: Inhibition of human ES3 cell growth in a cell viability assay.

[23] = tested on: HCE-4; format: functional, cell-based;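 note: cell viability assay measuring inhibition of growth in the human HCE-4 cell line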
Description: SANGER: Inhibition of human HCE-4 cell growth in a cell viability assay.

[24] = tested on: ES8; format: functional, cell-based;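 note: growth inhibition of human ES8 cells, read out with a cell viability assay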
Description: SANGER: Inhibition of human ES8 cell growth in a cell viability assay.

[25] = tested on: BE-13; format: functional, cell-based;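 note: growth inhibition of human BE-13 cells, measured with a cell viability assay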
Description: SANGER: Inhibition of human BE-13 cell growth in a cell viability assay.

[26] = tested on: SJSA-1; format: functional, cell-based;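 note: growth inhibition of human SJSA-1 cells, read out through a cell viability measurement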
Description: SANGER: Inhibition of human SJSA-1 cell growth in a cell viability assay.

[27] = tested on: HuTu80; format: functional, cell-based, HUTU-80;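 note: growth inhibition of HuTu80 human cells, determined with a cell viability readout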
Description: SANGER: Inhibition of human HUTU-80 cell growth in a cell viability assay.

[28] = tested on: QIMR-WIL; format: functional, cell-based;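 note: growth inhibition of QIMR-WIL cells, read out with a cell viability assay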
Description: SANGER: Inhibition of human QIMR-WIL cell growth in a cell viability assay.

[29] = tested on: DMS-114; format: functional, cell-based
[30] = tested on: SW872; format: functional, cell-based;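 note: growth inhibition of SW872 cells, read out by a viability assay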
Description: SANGER: Inhibition of human SW872 cell growth in a cell viability assay.

[31] = tested on: JAR; format: functional, cell-based;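 note: growth inhibition of human JAR cells determined with a cell viability assay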
Description: SANGER: Inhibition of human JAR cell growth in a cell viability assay.

[32] = tested on: RKO; format: functional, cell-based;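 note: growth inhibition of human RKO cells, read out with a cell viability assay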
Description: SANGER: Inhibition of human RKO cell growth in a cell viability assay.

[33] = tested on: A704; format: functional, cell-based;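 note: growth inhibition of human A704 cells, read out with a cell viability assay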
Description: SANGER: Inhibition of human A704 cell growth in a cell viability assay.

[34] = tested on: OS-RC-2; format: functional, cell-based;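 note: growth inhibition of human OS-RC-2 cells, measured by a cell viability assay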
Description: SANGER: Inhibition of human OS-RC-2 cell growth in a cell viability assay.

[35] = tested on: COLO-800; format: functional, cell-based;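 note: growth inhibition of COLO-800 cells, read out with a cell viability assay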
Description: SANGER: Inhibition of human COLO-800 cell growth in a cell viability assay.

[36] = tested on: IST-MEL1; format: functional, cell-based;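 note: growth inhibition of the cell line, read out with a cell viability assay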
Description: SANGER: Inhibition of human IST-MEL1 cell growth in a cell viability assay.

[37] = tested on: SHP77; format: functional, cell-based, SHP-77;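 note: growth inhibition of human SHP-77 cells measured by a cell viability assay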
Description: SANGER: Inhibition of human SHP-77 cell growth in a cell viability assay.

[38] = tested on: EW-1; format: functional, cell-based;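 note: growth inhibition of the human EW-1 cell line, read out by a cell viability assay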
Description: SANGER: Inhibition of human EW-1 cell growth in a cell viability assay.

[39] = tested on: LS-123; format: functional, cell-based
Description: SANGER: Inhibition of human LS-123 cell growth in a cell viability assay.

[40] = tested on: SK-PN-DW; format: functional, cell-based;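 note: growth inhibition measured with a viability assay on these cells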
Description: SANGER: Inhibition of human SK-PN-DW cell growth in a cell viability assay.

[41] = tested on: NB6; format: functional, cell-based;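 note: growth inhibition of NB6 cells, read out by a cell viability assay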
Description: SANGER: Inhibition of human NB6 cell growth in a cell viability assay.

[42] = tested on: Calu-6; format: functional, cell-based;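 note: growth of human Calu-6 cells, read out by a cell viability assay, IC50 marking inhibition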
Description: SANGER: Inhibition of human Calu-6 cell growth in a cell viability assay.

[43] = tested on: KGN; format: functional, cell-based;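 note: growth inhibition of KGN cells, read out with a cell viability assay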
Description: SANGER: Inhibition of human KGN cell growth in a cell viability assay.

[44] = tested on: KM12; format: functional, cell-based;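 note: KM12 cell growth inhibition, read out with a cell viability assay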
Description: SANGER: Inhibition of human KM12 cell growth in a cell viability assay.

[45] = tested on: LNCaP-Clone-FGC; format: functional, cell-based
Description: SANGER: Inhibition of human LNCaP-Clone-FGC cell growth in a cell viability assay.

[46] = tested on: SK-MEL-2; format: functional, cell-based;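 note: growth inhibition of human SK-MEL-2 cells measured with a cell viability assay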
Description: SANGER: Inhibition of human SK-MEL-2 cell growth in a cell viability assay.

[47] = tested on: NCI-H1155; format: functional, cell-based;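 note: cell growth inhibition measured by a viability assay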
Description: SANGER: Inhibition of human NCI-H1155 cell growth in a cell viability assay.

[48] = tested on: CCRF-CEM; format: functional, cell-based;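 note: inhibition of CCRF-CEM cell growth, measured by a cell viability assay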
Description: SANGER: Inhibition of human CCRF-CEM cell growth in a cell viability assay.

[49] = tested on: LB831-BLC; format: functional, cell-based;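 note: growth inhibition of LB831-BLC cells, read out with a cell viability assay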
Description: SANGER: Inhibition of human LB831-BLC cell growth in a cell viability assay.

[50] = tested on: GOTO; format: functional, cell-based;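 note: growth inhibition of GOTO cells, read out by a cell viability assay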
Description: SANGER: Inhibition of human GOTO cell growth in a cell viability assay.

[51] = tested on: COLO-668; format: functional, cell-based
Description: SANGER: Inhibition of human COLO-668 cell growth in a cell viability assay.

[52] = tested on: TE-10; format: functional, cell-based;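 note: growth inhibition of TE-10 cells, measured by a cell viability assay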
Description: SANGER: Inhibition of human TE-10 cell growth in a cell viability assay.

[53] = tested on: MZ7-mel; format: functional, cell-based;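 note: growth inhibition of human MZ7-mel cells, measured by a cell viability assay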
Description: SANGER: Inhibition of human MZ7-mel cell growth in a cell viability assay.

[54] = tested on: SK-N-FI; format: functional, cell-based;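 note: cell viability assay measuring growth inhibition of human SK-N-FI cells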
Description: SANGER: Inhibition of human SK-N-FI cell growth in a cell viability assay.

[55] = tested on: P30-OHK; format: functional, cell-based;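 note: growth inhibition of the P30-OHK cell line, read out with a cell viability assay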
Description: SANGER: Inhibition of human P30-OHK cell growth in a cell viability assay.

[56] = tested on: EW-18; format: functional, cell-based
Description: SANGER: Inhibition of human EW-18 cell growth in a cell viability assay.

[57] = tested on: NCI-H69; format: functional, cell-based
Description: SANGER: Inhibition of human NCI-H69 cell growth in a cell viability assay.

[58] = tested on: KY821; format: functional, cell-based
Description: SANGER: Inhibition of human KY821 cell growth in a cell viability assay.

[59] = tested on: SBC-1; format: functional, cell-based
Description: SANGER: Inhibition of human SBC-1 cell growth in a cell viability assay.

[60] = tested on: COR-L88; format: functional, cell-based
Description: SANGER: Inhibition of human COR-L88 cell growth in a cell viability assay.

[61] = tested on: SNU-5; format: functional, cell-based
Description: SANGER: Inhibition of human NCI-SNU-5 cell growth in a cell viability assay.

[62] = tested on: EOL1; format: functional, cell-based
Description: SANGER: Inhibition of human EoL-1-cell cell growth in a cell viability assay.

[63] = tested on: NCI-H209; format: functional, cell-based
Description: SANGER: Inhibition of human NCI-H209 cell growth in a cell viability assay.

[64] = tested on: EW-3; format: functional, cell-based
Description: SANGER: Inhibition of human EW-3 cell growth in a cell viability assay.

Measured: pIC50

O=c1cc(N2CCOCC2)oc2c(-c3cccc4c3sc3ccccc34)cccc12
< 5.70: [1] | [2] | [3] | [4] | [5] | [6] | [7] | [8] | [9] | [10] | [11] | [12] | [13] | [14] | [15] | [16] | [17] | [18] | [19] | [20] | [21] | [22] | [23] | [24] | [25] | [26] | [27] | [28] | [29] | [30] | [31] | [32] | [33] | [34] | [35] | [36] | [37] | [38] | [39] | [40] | [41] | [42] | [43] | [44] | [45] | [46] | [47] | [48] | [49] | [50] | [51] | [52] | [53] | [54] | [55]

Cn1c(=O)n(-c2ccc(C(C)(C)C#N)cc2)c2c3cc(-c4cnc5ccccc5c4)ccc3ncc21 [DACTOLISIB]
6.85: [4]
6.90: [29]
7.30: [2]
7.60: [22]
7.09: [12]
7.02: [10]
7.86: [62]
7.51: [28]
7.54: [6] | [17]
7.27: [1]
6.58: [23]
7.50: [56] | [25]
6.49: [53]
6.74: [16]
6.07: [60]
6.71: [13]
6.54: [19]
6.88: [7]
7.42: [32] | [45]
7.32: [47]
6.97: [11]
6.83: [54]
6.63: [40] | [44]
7.19: [30]
7.78: [34]
7.48: [35]
6.40: [41]
5.84: [9]
7.25: [33] | [58] | [43]
6.66: [8]
7.04: [39]
6.92: [38] | [49]
7.67: [14]
6.47: [61]
6.60: [3] | [50]
> 8.11: [59]
6.15: [51]
7.11: [46]
7.08: [18] | [55]
6.39: [52]
7.73: [36]
< 5.70: [15] | [37] | [42] | [48]
7.41: [21] | [26]
7.76: [63]
6.02: [31]
7.96: [24]
7.85: [20]
6.37: [57]

CC(=O)c1c(C)c2cnc(Nc3ccc(N4CCNCC4)cn3)nc2n(C2CCCC2)c1=O [PALBOCICLIB]
5.96: [17]
5.93: [20]
6.14: [22]
6.05: [35]
6.35: [25]
5.62: [26] | [32] | [41]
6.28: [34]
6.73: [62]
6.50: [58]
6.09: [14] | [64]
5.74: [44]
6.22: [24]
5.42: [21]
5.95: [28]
5.70: [30]
< 5.40: [1] | [2] | [3] | [4] | [7] | [8] | [9] | [10] | [56] | [11] | [12] | [13] | [15] | [16] | [18] | [19] | [23] | [57] | [29] | [31] | [33] | [36] | [37] | [38] | [39] | [40] | [42] | [45] | [59] | [46] | [47] | [48] | [60] | [49] | [50] | [61] | [51] | [52] | [53] | [54] | [63] | [55]
5.55: [43]
6.59: [6]

CCCS(=O)(=O)Nc1ccc(F)c(C(=O)c2c[nH]c3ncc(Cl)cc23)c1F [PLX-4720]
5.13: [20]
6.41: [12]
6.44: [13]
5.79: [63]
6.49: [21]
5.67: [61]
6.12: [5]
5.94: [53]
5.04: [58]
< 5.00: [1] | [2] | [3] | [4] | [6] | [7] | [8] | [9] | [10] | [56] | [11] | [14] | [15] | [16] | [17] | [18] | [19] | [22] | [23] | [24] | [25] | [26] | [27] | [57] | [28] | [29] | [30] | [31] | [32] | [33] | [34] | [35] | [36] | [37] | [38] | [39] | [40] | [41] | [42] | [43] | [44] | [45] | [59] | [46] | [47] | [48] | [60] | [49] | [50] | [51] | [52] | [54] | [55]
6.85: [62]
